pIC50: −log10 of the molar value.
How the values were obtained:
Type in all cases: cell-based, human
M14 cells = assay: Cell cycle analysis by flow cytometry, M14; conditions: 20 nM, eight days
Description: (§1) A total of 1 × 10^4 M14 cells and 1 × 10^4 SK-MEL-5 cells were seeded into 10 cm culture dishes. Twenty-four hours later, cells were treated in replicates of N = 3, with Dxr2-017 at 20 nM for M14 and 50 nM for SK-MEL-5, or vehicle for controls for a total of eight days, with replacement of media, along with Dxr2-017 or vehicle, at day five. Cells were then collected, filtered to obtain single-cell suspensions, equal numbers of cells were fixed in 1 mL of 70% ethanol at 4 °C for 1 h, washed with PBS, and resuspended in 1 mL of Telford reagent (1 mM EDTA disodium salt, 2.5 U/mL RNAse A, 75 µM Propidium Iodide, and 0.1% Triton X-100 in PBS), and then incubated at 4 °C overnight. Cells were analyzed by flow cytometry (FACSCalibur analyzer, BD Biosciences). Cells were gated on forward scatter (FSC) versus side scatter (SCC) to remove debris, followed by gating of single cells using PI (FL2)-Area versus PI (FL2)-Width. Cell cycle analysis was performed on the PI (FL2)-Area parameter, and the percentages of cells within G0/G1, S, and G2/M phases were determined using Modfit LT 4.0.5.

pan-cadherin = assay: Western blot for pan-cadherin, M14
Description: After treatment of M14 and SK-MEL-5 cells with different concentrations of Dxr2-017 or vehicle for 3 or 8 days, as denoted, cell images were captured at 20X in a transmitted light channel using the EVOS™ M5000 Imaging System (Invitrogen (Waltham, MA, USA)). Western blots were performed as previously described by us. Briefly, cells were collected and lysed using RIPA lysis buffer (25 mM Tris-HCl pH 7.6, 150 mM NaCl, 1% NP-40, 1% sodium deoxycholate, and 0.1% SDS; Thermo Scientific^TM (Waltham, MA, USA), #89900), supplemented with protease and phosphatase inhibitor cocktail (Thermo Scientific^TM, #78442) and 1 mM of PMSF. Resultant Western blots were probed using antibodies against cleaved caspase 3 (Cell Signaling Technology (Danvers, MA, USA), #9664), pan-cadherin (Cell Signaling Technology, #4068), and β-actin (Santa Cruz (Santa Cruz, CA, USA), #sc-47778).
These findings led us to compare cleaved caspase 3 between adherent cells and floating cells. Cleaved caspase 3 is an indicator of programmed cell death, and its triggering by loss of cell attachment is an established means of detecting anoikis. Adherent cells were prepared as above. […]

SK-MEL-5 cells = assay: Cell cycle analysis by flow cytometry, SK-MEL-5; conditions: 50 nM, eight days
Description: as §1

M14 = assay: Eight-day colony formation assay, melanoma M14
Description: In addition to screens, eight-day colony formation assays were conducted for certain experiments, as denoted. When measuring the effect of 5-fluorouracil (5FU) on HT29 colon cancer cells, the following final 5FU concentrations were examined: 0 (DMSO only), 0.0012, 0.012, 0.12, 0.82, 5.7, 20, and 40 µM. When measuring the effect of Dxr2-017 on melanoma cell growth, the following concentrations were examined: 0 (DMSO only), 0.001, 0.01, 0.1, 1.0, and 10.0 µM. Melanoma studies were performed on M14 and SK-MEL-5 human melanoma cell lines. For each Dxr2-017 concentration for each cell line, there were N = 3 replicates, and experiments were performed a total of 3 separate times (each with N = 3 replicates). The IC50 values were calculated using nonlinear regression analysis. Data from individual experiments were log-transformed and fitted to a dose–response curve using the four-parameter logistic model of GraphPad Prism 10 software. The IC50 values were determined using the dose–response inhibition function. IC50 values from each of three different experiments were used to calculate mean ± SEM.

## c1ccc2sc(-c3ccc(CNc4ccc5nnnn5n4)o3)nc2c1 [Dxr2-017]
M14 cells
  effect on cell cycle parameters: little-to-no change in cell cycle parameters
pan-cadherin
  cadherin expression: decreased cadherin expression in a concentration-dependent manner
SK-MEL-5 cells
  effect on cell cycle parameters: little-to-no change in cell cycle parameters
M14; Homo sapiens, 192 h, M14 melanoma, mean ± SEM of three experiments
  pIC50: 7.92
M14; M14 IC50 versus eight-day bone marrow treatment at 40 µM
  fold efficacy relative to bone marrow stem cells treated at 40 µM: over 2100 fold

— publication PMC11429909, “Protein Structure Inspired Discovery of a Novel Inducer of Anoikis in Human Melanoma” (Cancers, 2024)
